Holding throughout (assay): growth of human tumour cells (NCI), 48 h
Assay [1] has as its system CCRF-CEM leukemia.
In assay [2] the test system is SF-539 CNS.
Assay [3] relates to NCI-H522 lung.
The subject of assay [4] is OVCAR-8 ovarian.
Assay [5] deals with LOX IMVI melanoma.
The subject of assay [6] is SK-MEL-28 melanoma.
For assay [7], the system named is UACC-62 melanoma.
Assay [8] has as its system SK-MEL-2 melanoma.
Assay [9] concerns EKVX NSCLC.
The subject of assay [10] is RPMI-8226 leukemia.

“And” between values parts separate entries of the source, which are not always exact repeats. Identical values can stand only once.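 In this assay, cells in 96-well plates receive the compound at five concentrations for 48 hours. Endpoints are linearly interpolated between the surrounding concentrations. At the GI50, growth is halved. TGI marks complete inhibition of growth.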 Some results are limits rather than exact numbers.

Regarding `Cc1cc2c(cc1C)[n+](=O)c(C(=O)C/C(=N/NC(=O)CC#N)C(=O)Nc1ccccc1C(F)(F)F)c(C)n2[O-]`, the TGI in assay [1] was greater than 100 µM; in assay [2] it was greater than 100 µM; in assay [3], 35.5 µM; in assay [4], greater than 100 µM; in assay [5] it was greater than 100 µM; in assay [6], greater than 100 µM. Further, the TGI in assay [7] was greater than 100 µM; in [8], 92.3 µM; in [9], greater than 100 µM.
For `CCOC(=O)[C]1([Bi]([CH3])[CH3])N=NC(C(=O)OC)=C1C(=O)OC` (stereo not given), the GI50 is 11.3 µM in assay [1]; 18.1 µM in [2]; 19.2 µM in assay [4]; 16.2 µM in [6]; 19.5 µM in assay [7]; 18.3 µM in [8]. For the same compound, the GI50 was 18.7 µM in assay [9] and 21.5 µM in assay [10]. The TGI was found to be 37.6 µM in [1]; 32.3 µM in [2]; 42.3 µM in assay [4]; 30.4 µM in [6]; 34.4 µM in [7]; 33.7 µM in assay [8]. Further, the TGI in assay [9] was 36.5 µM; in [10], 67.2 µM.
On to `CCN(CC)CCOc1ccc(/C(=C(\Cl)c2ccccc2)c2ccccc2)cc1`, for which the GI50 was 1.77 µM and 1.87 µM in [2]; 3.09 µM and 1.47 µM in assay [3]; 7 µM and 4.65 µM in [4]; 0.916 µM and 1.67 µM in assay [5]; 1.07 µM and 1.79 µM in [6]; 1.04 µM and 2.15 µM in assay [7]. In addition, the GI50 in [8] was 3.26 µM and 1.64 µM; in assay [9], 5.74 µM and 3.44 µM; in assay [10], 2.17 µM. Further, the TGI is 5.49 µM and 4.29 µM in assay [2]; 10 µM and 3.02 µM in assay [3]; 14.3 µM and 18.6 µM in assay [4]; 1.89 µM and 3.22 µM in assay [5]; 2.21 µM and 3.47 µM in [6]; 2.33 µM and 4.88 µM in assay [7]. Also, the TGI in assay [8] is 10.4 µM and 3.7 µM; in assay [9], 13 µM and 17.3 µM; in assay [10], 6.98 µM.
For the compound `O=C1Nc2c(C(F)(F)F)cccc2[C@]1(c1ccc(O)cc1)c1ccc(OC(F)(F)F)cc1`, the GI50 in assay [1] was 11.7 µM; in assay [2], 14.4 µM; in assay [3] it was 12.9 µM; in assay [4] it was 5.29 µM; in assay [6], 15 µM; in [7] it was 11.9 µM. Also, the figures for the GI50 in assay [8], in assay [9] and in assay [10] were 12.6 µM, 8.09 µM and 10.4 µM, respectively. Besides, the TGI in assay [1] amounted to 49.9 µM; in [2] it was 27.6 µM; in assay [3], 28.5 µM; in assay [4] it was 21.8 µM; in [6] it was 28.8 µM; in [7] it was 25 µM. The values for the TGI in [8], in assay [9] and in [10] were 28.2 µM, 21.6 µM and 59.1 µM, respectively.
Consider `Nc1cc(N)c2nc(-c3ccccc3)c(Nc3ccc(Cl)c(Cl)c3)nc2c1`, for which the GI50 in [2] was 17.1 µM; in assay [3], 5.3 µM; in [4], 5.18 µM; in [5] it was 4.38 µM; in assay [6], 16.1 µM; in assay [7], 13.1 µM. For the same compound, the figures for the GI50 in assay [8], in assay [9] and in assay [10] were 2.32 µM, 3.83 µM and 2 µM, respectively. Also, the TGI in assay [2] was 35.3 µM; in [3], 21.7 µM; in assay [4], 79.8 µM; in assay [5], greater than 100 µM; in assay [6], 44.2 µM; in [7] it was 29.9 µM. In addition, the values for the TGI in [8], in assay [9] and in assay [10] were 19.1 µM, 16.2 µM and 4.92 µM, respectively.
Regarding `C=CCCCCCCCCC(=O)[O][Sn]([CH2]CCC)([CH2]CCC)[CH2]CCC`, the GI50 in [2] was 0.169 µM; in assay [3] it was 0.141 µM; in assay [5], 0.138 µM; in assay [6] it was 0.157 µM; in assay [7], 0.168 µM; in assay [8], 0.189 µM. The GI50 in [9] was 0.131 µM; in assay [10], 0.035 µM. The TGI in assay [2] worked out at 0.332 µM; in assay [3] it was 0.296 µM; in assay [5], 0.278 µM; in assay [6] it was 0.296 µM; in assay [7] it was 0.349 µM; in assay [8], 0.377 µM. The TGI in assay [9] came out at 0.32 µM; in assay [10], 0.278 µM.
Turning to `Oc1c(CN2CCC(N3CCCCC3)CC2)cc(Cc2cc(CN3CCC(N4CCCCC4)CC3)c(O)c3ncccc23)c2cccnc12`, the GI50 in [1] was 0.403 µM; in [3], 1.39 µM; in [4] it was 1.83 µM; in assay [5], 0.62 µM; in assay [6] it was 1.24 µM; in assay [7] it was 0.609 µM. The values for the GI50 in [8], in assay [9] and in assay [10] were 2.21 µM, 0.57 µM and 1.86 µM, respectively. Moreover, the TGI in assay [1] was 3.51 µM; in [3], 3.63 µM; in assay [4] it was 12.3 µM; in assay [5], 2.89 µM; in [6] it was 5.77 µM; in assay [7], 5.17 µM. Further, the figures for the TGI in [8], in assay [9] and in [10] were 7.04 µM, 15.5 µM and 7.22 µM, respectively.
For `Oc1ccc(CN2CCC(N3CCCCC3)CC2)c2cccnc12`, the GI50 was 36.1 µM in [1]; 3.43 µM in assay [3]; 7.69 µM in assay [4]; 5.32 µM in [5]; 21.4 µM in assay [6]; 4.87 µM in assay [7]. In addition, the GI50 is 27.9 µM in [8], 32.4 µM in assay [9] and 6.33 µM in assay [10]. The TGI in [1] was greater than 100 µM; in assay [3], 43.9 µM; in [4], greater than 100 µM; in assay [5], greater than 100 µM; in assay [6] it was greater than 100 µM; in [7], 67.5 µM. For the same compound, the TGI in assay [8], in [9] and in assay [10] was greater than 100 µM in each case.
Turning to `COC(=O)C1Cc2c(n(Cc3ccccc3)c3ccccc23)C(CCC(=O)O)N1C(C)C` (stereo not given), the TGI in assay [1], in assay [2], in assay [3], in assay [4], in assay [5] and in [6] was greater than 100 µM in each case. The TGI in assay [7], in [8] and in assay [9] was greater than 100 µM in each case.

These data come from PubChem BioAssay (NCI).
